Test results as given in patent publication US3941776A, “Resolution/racemization of aminolactam compounds” (Allied Chemical Corporation, priority 1974, dated 1976).

How the values were obtained:
Assay type in all cases: physicochemical
[1] = Racemization of L-ACL in ACL/NiCl2 solution with sodium methoxide (Example 1, Table 1); details: 0.20 M NiCl2
Description: A sample of 0.702g. […] The molar ratio of ACL to NiCl2 in this solution is 3.5. […] Samples of 2.0 ml each of the solution were sealed and placed in a 60°C. (50° and 40°) bath. At different time intervals the samples were taken from the bath to determine the extent of racemization of L-ACL. To this end each sample was quenched and adjusted to 5.0 ml with 1N.HCl. […] The latter correlation is indicative of the importance of rendering Ni^+^+ coordinately saturated. It should be noted that even at temperatures as low as 40°C. suitable reaction rates are obtained and, in general, a temperature range of about 40° to about 95°C. may be used.

[2] = Racemization of L-ACL with NiCl2 and base from ion exchange resin (Example 4)
Description: a. A 20 ml ethanol solution containing 8 mmol (D,L-ACL)3 NiCl2 and 8 mmol D,L-ACL was passed through a strongly basic [quaternary ammonium hydroxide type (ANGA-542*)] ion exchange column in about 1 hour. The complex solution was followed by 15 ml ethanol and the combined eluent brought to 50 ml in a volumetric flask.
A reaction solution was prepared from 0.518g (2 mmol) of 50% L-ACL (88% optically pure) in ethanol, 1.13g (4.4 mmol) 50% D,L-ACL in ethanol and 2.48 ml 0.645 M in NiCl2.H2 O in ethanol. This was brought to reflux and 2.5 ml of the solution described above was added. The final quantities thus are total ACL 8 mmol, Ni^+^2, 2 mmol, ^-OH (free or bound to Ni^+^2), 0.3 mmol and Cl^-. 3.7 Mmol, in a total volume of 6.7 ml.
b. A 10 ml sample of 0.90 M NiCl2. H2 O in ethanol, was passed through a weakly basic ion exchange resin (IR-45, supplied by Rohm and Haas Company). The eluent had pH 5.5 (measured with a glass electrode in ethanol; the pH of untreated NiCl2 solution was about 3.7). A 1 ml aliquot of the eluent, containing 0.15 m atoms of Ni^+^+, was mixed with 78 mg (0.60 mmols) of L-ACL in 1 ml methanol. The mixture was heated in a sealed vial at 80°C. for 30 minutes.

[3] = Racemization of L-ACL.HCl/L-ACL with catalysts (Examples 13-42, Table IV); details: 15 minutes at 70°C, Cu^II (5-nitrosalicylaldehyde)2, H2O/dimethylformamide 20/80
Description: A solution containing 0.160g (1.25 mmol) L-ACL, 0.206g (1.25 mmol) L-ACL.HCl and […] of Cu^II (5-nitrosalicylaldehyde)2 in 20/80 (v/v) H2 O/dimethylformamide (10 ml overall volume) was heated for 15 minutes at 70°C.
Following the procedure of Example 13, racemization of L-ACL.HCl was conducted in the presence of various catalysts and under various conditions of temperature and concentration; the data is summarized in Table IV.

SMILES | Racemization Rate t1/2 ([1]; ACL/NiCl2 mole ratio 3.5, Ethanol, 60°C) | Racemization Rate t1/2 ([1]; ACL/NiCl2 mole ratio 3.5, Methanol, 40°C) | Racemization Rate t1/2 ([1]; ACL/NiCl2 mole ratio 3.5, Methanol, 50°C) | Racemization Rate t1/2 ([1]; ACL/NiCl2 mole ratio 4, Ethanol, 60°C) | Racemization Rate t1/2 ([1]; ACL/NiCl2 mole ratio 4, Methanol, 40°C) | Racemization Rate t1/2 ([1]; ACL/NiCl2 mole ratio 4, Methanol, 50°C) | Racemization Rate t1/2 ([1]; ACL/NiCl2 mole ratio 5, Ethanol, 60°C) | Racemization Rate t1/2 ([1]; ACL/NiCl2 mole ratio 5, Methanol, 40°C) | Racemization Rate t1/2 ([1]; ACL/NiCl2 mole ratio 5, Methanol, 50°C) | Racemization Rate t1/2 ([1]; ACL/NiCl2 mole ratio 6, Ethanol, 60°C) | Racemization Rate t1/2 ([1]; ACL/NiCl2 mole ratio 6, Methanol, 40°C) | Racemization Rate t1/2 ([1]; ACL/NiCl2 mole ratio 6, Methanol, 50°C) | extent of racemization ([2]; 80°C, 30 minutes, NiCl2 eluent from IR-45 resin, methanol) | t1/2 of racemization ([2]; ethanol, reflux (~80°C), NiCl2, base from ANGA-542 resin) | extent of racemization [3]
N[C@H]1CCCCNC1=O [L-ACL, L-α-amino-ε-caprolactam] | 1.17 h | 16.73 h | 5.67 h | 0.717 h | 12.8 h | 4.33 h | 0.433 h | 9.72 h | 2.7 h | 0.367 h | 10.2 h | 2.83 h | completely racemized | 0.175 h | 
Cl.N[C@H]1CCCCNC1=O [L-ACL.HCl, L-α-amino-ε-caprolactam hydrochloride] |  |  |  |  |  |  |  |  |  |  |  |  |  |  | complete racemization
